Test system: RAW264.7 macrophages
Assay: Transwell migration, osteopontin-coated membrane
Assay type: cell-based, mouse
Details: AubipyOMe 80 nM, 5-PNA 100 μM
Protocol: Migration of RAW264.7 macrophages was assessed using a transwell-culturing system with inserts (Sigma-Aldrich) coated with osteopontin (10 μg/ml, R&D). Bovine collagen-coated inserts (10 μg/ml, Advanced Biometrix, Carlsbad, USA) were used as matrix control. Cells were incubated with or without RANKL (200 ng/ml) for 72 hours to induce TRAP activity or not[75], in the presence or absence of AubipyOMe (80 nM) in quadruplicate. The previously described TRAP inhibitor 5-PNA (100 μM) was used as selective positive control for TRAP inhibition[15],[23]. The number of cells migrated to the lower well, including dead cells, was calculated relative to control cells and individual experiments were done at least six times. […]
Transwell experiment to assess macrophage migration
Migration of RAW264.7 macrophages was assessed using a transwell-culturing system with inserts (Sigma-Aldrich) coated with osteopontin (10 µg/ml, R&D). Bovine collagen-coated inserts (Advanced Biometrix, Carlsbad, USA) were used as a matrix control. RAW264.7 macrophages, pre-stimulated with 200 ng/ml RANKL for 72h to induce TRAP activity16, were seeded on 8 µm pore inserts coated with osteopontin (10 µg/ml, 250,000 cells/well) or collagen (10 μg/ml, 250,000 cells/well). Cells were cultured for 16h in the presence or absence of AubipyOMe (80 nM) in quadruplicate. The previously described TRAP inhibitor 5-PNA (100 µM) was used as selective positive control for TRAP inhibition12,17. The number of cells migrated to the lower well, including dead cells, was calculated relative to control cells and individual experiments were done at least six times. […]

With `COc1ccnc(-c2cc(OC)ccn2)c1.F[P-](F)(F)(F)(F)F.[Cl][Au+][Cl]` [AubipyOMe, [Au(4,4′-dimethoxy-2,2′-bipyridine)Cl2][PF6]] the “migration of RANKL-pretreated macrophages through osteopontin-coated membrane” value (RANKL 200 ng/ml 72 h, versus RANKL alone) was “significantly less migration” and the “migration through osteopontin-coated membrane, inhibitor alone” value (no RANKL) was “did not affect migration”.
